{"source": "paper PMC10877774", "about": "“Development of an UPLC-MS/MS method for quantitative analysis of abexinostat levels in rat plasma and application of pharmacokinetics” (BMC Chemistry, 2024)", "key": {"[1]": {"assay": "Stability of abexinostat in rat plasma under different storage and handling conditions", "assay_type": "in vitro ADME", "conditions": "for stability (in words) / stability of plasma samples (in words): RE within ± 15% considered stable; for Stability RE (%): n = 5", "description": "For the preparation of control and standard curves, we dissolved abexinostat and IS in methanol at a concentration of 1.00 mg/mL. Both the abexinostat working solution and the 100 ng/mL IS working solution were diluted with methanol from their respective stock solutions. The corresponding working solution (10 μL) was diluted tenfold and operated by adding rat blank plasma (90 μL) to obtain a calibration curve with a concentration range of 2.00–100 ng/mL. The concentrations at each point in the standard curve were set to 2.00, 5.00, 10, 20, 50, 100 ng/mL, respectively. Final concentrations of QC samples were 2.00 (lower limit of quantitation, LLOQ), 5.00 (low quality control, LQC), 40 (median quality control, MQC), and 80 (high quality control, HQC) ng/mL.\nThe principles of the analytical methods in this study were performed in accordance with the FDA’s “Guidance for Industry: Bioanalytical Method Validation” [14], including calibration curves, selectivity, LLOQ, recovery, matrix effects, precision and accuracy, and stability.\nStability experiments to test abexinostat in plasma under different storage and handling conditions were done to investigate whether abexinostat was still stable in rat plasma. The stability test results were in Table 3. […] Furthermore, the assay remained stable in the autosampler (10 °C) for 4 h and 3 h at room temperature. Relative errors (RE) within ± 15% were considered stable by data comparison."}, "[2]": {"design": "method as in PMID 26482040", "conditions": "60 mg/m^2 group; grade 5 acute renal failure, grade 3 long-term diarrhea; cited from earlier work"}, "[3]": {"design": "method as in PMID 27911138", "conditions": "cited from earlier work"}, "[4]": {"assay": "Pharmacokinetic study in rats after single gavage dose, plasma levels by UPLC-MS/MS", "assay_type": "in vivo, Sprague–Dawley Rats", "description": "Quantitative analysis was performed using a UPLC-MS/MS system consisting of a Waters Xevo TQ-S triple quadrupole tandem mass spectrometer and a Waters ACQUITY UPLC I-Class system (Milford, MA, USA) used in this experiment. Accurate molecular weight calculations were achieved using an electrospray ionization (ESI) source (Milford, MA, USA) with ultra-high sensitivity. The system was chromatographed on an Acquity BEH C18 column (2.1 mm × 50 mm, 1.7 μm; Milford, MA, USA) at 40 °C with acetonitrile and 0.1% formic acid as mobile phases. Gradient elution was as follows: 0 − 0.5 min (acetonitrile, 10%) and 0.5–1.0 min (acetonitrile, 10–90%), 1.0–1.4 min (acetonitrile, 90%) and 1.4–1.5 min (acetonitrile, 90–10%) at 0.40 mL/min. Finally, the mobile phase was maintained 10% acetonitrile between 1.5 and 2.0 min for equilibration. A 2.0 μL sample was drawn from each vial as the injection volume, and the entire analysis process time was 2.0 min. In UPLC-MS/MS, we used positive ion mode to detect abexinostat and IS with ion transition of m/z 397.93 → 200.19 and 422.01 → 186.11, respectively. 25 eV and 30 V were the collision energy and cone voltage for both.\nPlasma protein composition interfered with detection sensitivity. The protein precipitation method in this study was to add acetonitrile to the plasma, and the protein was fully precipitated and then centrifuged. We added 100 μL of the plasma sample along with 10 μL of the IS working solution (concentration of 100 ng/mL) in an Eppendorf (EP) tube. Mixing well and adding acetonitrile at a ratio of 1:3 to precipitate the protein in the EP tube, and centrifuged at 13,000 rpm for 10 min at 4 °C. 100 μL of the supernatant was transferred to an autosampler vial for quantitative analysis by the UPLC-MS/MS system.\nSprague–Dawley Rats Were Provided By The First Affiliated Hospital Of Wenzhou Medical University (Zhejiang, China), And The Animal Study Was Reviewed And Approved By Ethics Committee Of The First Affiliated Hospital of Wenzhou Medical University (WYYY-IACUC-AEC-2023-055). All rats were fasted for 24 h before the experimental animals, and a single gavage dose of 8.00 mg/kg of abexinostat was administered to 6 rats after fasting. At 20 and 40 min, 1, 1.5, 2, 3, 4, 6, 8, 12, 24, and 48 h after gavage, 300 μL of whole blood was collected from the tail vein of the rat and put into heparinized tubes. Then, the blood sample was centrifuged at 8000 rpm for 5 min. 100 μL of plasma was obtained and frozen at − 80 °C for further processing and analysis.\nThe main parameters of pharmacokinetics were analyzed by Drug and Statistics (DAS, Version 3.0 software, Shanghai University of Traditional Chinese Medicine, China)."}, "[5]": {"design": "method as in PMID 28126962", "conditions": "patients with follicular lymphoma, T-cell lymphoma, diffuse large B-cell lymphoma, phase II; cited from earlier work"}, "[6]": {"conditions": "patients, most common grade 3 treatment-related adverse events"}, "[7]": {"conditions": "Sprague-Dawley, po, rat plasma, intragastric single dose 8.00 mg/kg, n = 6, Mean ± SD"}}}
{"smiles": "CN(C)Cc1c(C(=O)NCCOc2ccc(C(=O)NO)cc2)oc2ccccc12", "note": "[Abexinostat]", "values": [{"measurement": "stability (in words)", "setting": "[1]; 3 h at room temperature", "result": "stable"}, {"measurement": "Stability RE (%)", "setting": "[1]; Autosampler 10 ℃, 4 h, 40 ng/mL", "result": 15.0, "unit": "%"}, {"measurement": "stability (in words)", "setting": "[1]; autosampler (10 °C) for 4 h", "result": "stable"}, {"measurement": "Stability RE (%)", "setting": "[1]; plasma, Room temperature, 3 h, 40 ng/mL", "result": 2.2, "unit": "%"}, {"measurement": "Stability RE (%)", "setting": "[1]; plasma, Room temperature, 3 h, 80 ng/mL", "result": 0.2, "unit": "%"}, {"measurement": "Stability RE (%)", "setting": "[1]; plasma, Three freeze–thaw (− 80 °C/room temperature), 80 ng/mL", "result": 13.8, "unit": "%"}, {"measurement": "Stability RE (%)", "setting": "[1]; plasma, − 80 ℃, 3 weeks, 5.00 ng/mL", "result": 5.4, "unit": "%"}, {"measurement": "Stability RE (%)", "setting": "[1]; plasma, − 80 ℃, 3 weeks, 40 ng/mL", "result": 3.3, "unit": "%"}, {"measurement": "stability of plasma samples (in words)", "setting": "[1]; three cycles of full freezing (− 80 °C)/thawing (room temperature)", "result": "stable"}, {"measurement": "stability of plasma samples (in words)", "setting": "[1]; − 80 °C for at least 3 weeks", "result": "stable"}, {"measurement": "patients with dose-limited toxicities (DLTs)", "setting": "[2]", "result": "2/8"}, {"measurement": "evaluable patients with stable disease", "setting": "[3]; Phase I, various types of leukemia", "result": "1 out of 12"}, {"measurement": "grade 3 treatment-related adverse event: neutropenia", "setting": "[3]; [6]", "result": 24, "unit": "%"}, {"measurement": "grade 3 treatment-related adverse event: thrombocytopenia", "setting": "[3]; [6]", "result": 29, "unit": "%"}, {"measurement": "AUC(0-inf)", "setting": "[4]; [7]", "result": "501 ± 40.1", "unit": "ng·h/mL"}, {"measurement": "AUC(0-t)", "setting": "[4]; [7]", "result": "461 ± 38.9", "unit": "ng·h/mL"}, {"measurement": "Cmax", "setting": "[4]; [7]", "result": "28.2 ± 7.67", "unit": "ng/mL"}, {"measurement": "half-life", "setting": "[4]; [7]", "result": "13.8 ± 2.5", "unit": "h"}, {"measurement": "CL/F", "setting": "[4]; Sprague-Dawley, po, rat plasma, intragastric single dose 8.00 mg/kg, n = 6, Mean ± SD, read-out: CLz/F (converted)", "result": 267, "unit": "mL/min/kg"}, {"measurement": "MRT last", "setting": "[4]; Sprague-Dawley, po, rat plasma, intragastric single dose 8.00 mg/kg, n = 6, Mean ± SD, read-out: MRT0-t", "result": "14.8 ± 0.8", "unit": "h"}, {"measurement": "MRT inf", "setting": "[4]; Sprague-Dawley, po, rat plasma, intragastric single dose 8.00 mg/kg, n = 6, Mean ± SD, read-out: MRT0-∞", "result": "19.1 ± 2.55", "unit": "h"}, {"measurement": "Tmax", "setting": "[4]; Sprague-Dawley, rat, plasma, po, 8 mg/kg, rat plasma, intragastric single dose 8.00 mg/kg, n = 6, Mean ± SD", "result": "~1.39", "unit": "h"}, {"measurement": "time at which plasma concentration peaks, estimated from Fig. 3", "setting": "[4]; rats, oral administration 8.00 mg/kg, mean concentration–time curve", "result": "around 1 h"}, {"measurement": "tumor control (in words)", "setting": "[5]", "result": "durable tumor control"}]}
